Laboratory results taken from patent US11959100B2, “Method for culture of cells” (Kyoto University, priority 2017, dated 2024).
Blank lines part the entries; values can stand above or below the compound they belong to.

Key:
GSK3β = GSK3β (Homo sapiens, UniProt P49841); assay: GSK3β inhibitory activity, CellSensor LEF/TCF-bla HCT-116 reporter assay; assay type: cell-based
From the text: In the Wnt/β-catenin pathway, GSK3β functions to phosphorylate β-catenin in the absence of Wnt-ligand. The phosphorylated β-catenin is ubiquitinated and degraded within the proteasome. Therefore, gene expression downstream of the Wnt-β-catenin pathway is suppressed. If GSK3β in this pathway is inhibited, β-catenin is translocated into the nucleus, without being degraded, to induce gene expression downstream of the Wnt-β-catenin pathway together with other transcription factors such as T-cell factor (TCF)/lymphoid enhancer factor (LEF). CellSensor LEF/TCF-bla HCT-116 Cell Line (Thermo Fisher Scientific Inc., K1676) stably incorporates therein LEF/TCF and incorporates a reporter gene (beta-lactamase reporter gene) so as to express the reporter gene under the control of LEF/TCF. The expression of the reporter gene in this cell line in the absence of the Wnt-ligand serves as an index for the inhibition of the function (β-catenin phosphorylation function) of GSK3β. The GSK3β inhibitory activity of the GSK3β inhibitor was measured by assay using this cell line.
The assay was conducted in accordance with the protocol of Invitrogen Corp. (CellSensor® LEF/TCF-bla HCT 116 Cell-based Assay Protocol).
Specifically, LEF/TCF-bla HCT-116 Cells were suspended in an assay medium (OPTI-MEM, 0.5% dialyzed FBS, 0.1 mM NEAA, 1 mM sodium pyruvate, 100 U/mL/100 μg/mL Pen/Strep) (312,500 cells/mL). The cell suspension was inoculated to each well of an assay plate (10,000 cells/well), and cultured for 16 to 24 hours.
A beta-lactamase substrate solution (LiveBLAzer-FRET B/G (CCF4-AM) Substrate Mixture) was added to each well (8 μL/well) and incubated for 2 hours. A fluorescence value was measured in a fluorescence plate reader. The measurement was performed in two wells per each concentration condition.

[1] = tested on: neural crest cells (NCCs); assay: Expansion (suspension) culture of neural crest cells: total cell number / rate of cell proliferation; assay type: cell-based, Human; details: for influence of concentration on change in total cell number: bFGF and EGF 20 or 40 ng/ml, CHIR99021 1, 2, 3, 3.5, 4, 4.5 or 5 μM
From the text: (§1) Human iPSCs were allowed to differentiate into neural crest cells (NCCs) according to the method described in Non Patent Literature 1. The iPSCs used were SOX10-Nano-Lantern Reporter Human iPSCs (201B7 line) described in Non Patent Literature 4. This cell line has an insert of a nucleotide sequence encoding a fluorescent protein Nano-Lantern (Saito K. et al., “Luminescent proteins for high-speed single-cell and whole-body imaging.” Nat. Commun., 2012; 3: 1262) downstream of SOX10 gene, a marker gene of NCCs, and expresses a fusion protein of SOX10 and Nano-Lantern under the control of SOX10 promoter.
(§2) iPSCs were inoculated to a Matrigel-coated dish, adherent-cultured for 4 days in TeSR1 medium, and then adherent-cultured for 10 days in CDM medium containing 10 μM SB431542 (TGFβ inhibitor) and 1 μM CHIR99021 (GSK3β inhibitor), and thereby allowed to differentiate into NCCs.
NCCs were detached from the dish and suspension-cultured in CDM medium containing 10 μM SB431542, 3 μM CHIR99021, 40 ng/ml bFGF and 40 ng/ml EGF. The cells were passaged every 7 days.
(§3) Change in total cell number after the start of expansion culture is shown in FIG. 1, and change in the percentage of SOX10 expression-positive cells is shown in FIG. 2. In order to measure the percentage of SOX10 expression-positive cells, an aggregated cell mass was dissociated using StemPro Accutase Cell Dissociation Reagent (Invitrogen Corp.) to prepare single-cell suspensions. The single-cell suspensions in FACS buffer (2% BSA HBSS) supplemented with 1 μg/mL PI (propidium iodide, Wako Pure Chemical Industries, Ltd.) were filtered through a tube with 35 μm nylon mesh (BD Falcon) and then analyzed using a flow cytometer (FACS Aria, BD Biosciences) to measure the ratio of GFP-positive cells in live cells (PI-negative cells). […] The expressed SOX10 serves as a marker of NCCs having multipotency.

[2] = tested on: neural crest cells (NCCs); assay: Expansion (suspension) culture of neural crest cells: percentage of SOX10 expression-positive cells by flow cytometry; assay type: cell-based, Human; details: for influence of concentration on change in the percentage of SOX10 expression-positive cells: bFGF and EGF 20 or 40 ng/ml
From the text: as §1, §2
[…] The cells were passaged every 7 days.
as §3

neural crest cells [3] = details: 1 μM CHIR99021; culture for 7 days; suspension culture; cited from earlier work
neural crest cells [4] = details: bFGF 0 pg/ml to 10 ng/ml; adherent culture; cited from earlier work
[5] = bFGF 10, 12.5, 15.0 or 17.5 ng/ml, CHIR99021 1.5 μM

GSK3β, sequence (P49841 whole entry): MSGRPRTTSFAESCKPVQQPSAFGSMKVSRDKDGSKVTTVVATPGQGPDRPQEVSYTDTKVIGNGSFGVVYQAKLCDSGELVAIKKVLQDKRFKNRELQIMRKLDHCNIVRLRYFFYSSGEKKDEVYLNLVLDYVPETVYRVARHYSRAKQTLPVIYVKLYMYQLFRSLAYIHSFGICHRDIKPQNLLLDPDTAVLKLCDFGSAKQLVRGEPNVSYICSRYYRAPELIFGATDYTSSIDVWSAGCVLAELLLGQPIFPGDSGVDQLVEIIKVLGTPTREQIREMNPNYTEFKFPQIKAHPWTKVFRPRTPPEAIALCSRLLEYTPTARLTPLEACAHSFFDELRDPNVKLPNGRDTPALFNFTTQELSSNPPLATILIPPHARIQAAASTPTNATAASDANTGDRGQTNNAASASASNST

Fluorescence value Well 1 (GSK3β; 0.316 nM): 6
Fluorescence value Well 2 (GSK3β; 0.316 nM): 0
Fluorescence value Well 1 (GSK3β; 1.00 nM): 0
Fluorescence value Well 2 (GSK3β; 1.00 nM): 0
Fluorescence value Well 1 (GSK3β; 3.16 nM): 0
Fluorescence value Well 2 (GSK3β; 3.16 nM): 14
Fluorescence value Well 1 (GSK3β; 10.0 nM): 12
Fluorescence value Well 2 (GSK3β; 10.0 nM): 23
Fluorescence value Well 1 (GSK3β; 31.6 nM): 21
Fluorescence value Well 2 (GSK3β; 31.6 nM): 45
Fluorescence value Well 1 (GSK3β; 100 nM): 75
Fluorescence value Well 2 (GSK3β; 100 nM): 60
Fluorescence value Well 1 (GSK3β; 316 nM): 101
Fluorescence value Well 2 (GSK3β; 316 nM): 96
GSK3β inhibitory activity in terms of the fluorescence value (mean from the two wells) (GSK3β; 1 μM): 113.5
Fluorescence value Well 1 (GSK3β; 1000 nM): 114
Fluorescence value Well 2 (GSK3β; 1000 nM): 113
Fluorescence value Well 1 (GSK3β; 3160 nM): 99
Fluorescence value Well 2 (GSK3β; 3160 nM): 136
Fluorescence value Well 1 (GSK3β; 10000 nM): 88
Fluorescence value Well 2 (GSK3β; 10000 nM): 73
Compound: Cc1c[nH]c(-c2cnc(NCCNc3ccc(C#N)cn3)nc2-c2ccc(Cl)cc2Cl)n1 [CHIR99021, 6-[[2-[[4-(2,4-dichlorophenyl)-5-(4-methyl-1H-imidazol-2-yl)-2-pyrimidinyl]amino]ethyl]amino]nicotinonitrile]
change in total cell number after the start of expansion culture ([1]; 3 μM CHIR99021, 10 μM SB431542, 40 ng/ml bFGF, 40 ng/ml EGF, whole culture period): increased over the whole period
influence of concentration on change in total cell number [1]: no influence
percentage of SOX10 expression-positive cells ([2]; 3 μM CHIR99021, 10 μM SB431542, 40 ng/ml bFGF, 40 ng/ml EGF, on 121 days of culture): high percentage of SOX10 expression-positive cells was confirmed
time of culture at which the number of cells that maintained multipotency decreased ([2]; CHIR99021 1 μM): 21 days
percentage of SOX10 expression-positive cells ([2]; CHIR99021 1 μM, on 21 days of culture): decrease in the percentage of SOX10 expression-positive cells was observed
percentage of SOX10 expression-positive cells ([2]; CHIR99021 1 μM, on 63 days of culture): ≤ 25%
period over which multipotency was maintained ([2]; CHIR99021 2 μM): ≥ 63 days
percentage of SOX10 expression-positive cells ([2]; CHIR99021 2 μM, on 63 days of culture): ≥ 55%
time of culture at which the number of cells that maintained multipotency decreased ([2]; CHIR99021 5 μM): 42 days
percentage of SOX10 expression-positive cells ([2]; CHIR99021 5 μM, on 63 days of culture): ≤ 5%
percentage of SOX10 expression-positive cells ([2]; CHIR99021 5 μM, up to 42 days of culture): ≥ 55%
period of culture and proliferation of neural crest cells that maintained multipotency ([2]; CHIR99021 3 to 4.5 μM): ≥ 112 days
percentage of SOX10 expression-positive cells ([2]; CHIR99021 3 to 4.5 μM, on 121 days of culture): ≥ 90%
presence of Sox10-positive cells (neural crest cells [3]): presence of Sox10-positive cells was confirmed

Compound: Cn1cc(C2=C(c3cccc(N)c3)C(=O)NC2=O)c2ccccc21 [CP21R7, 3-(3-amino-phenyl)-4-(1-methyl-1H-indol-3-yl)-pyrrole-2,5-dione]
time of culture at which the number of cells that maintained multipotency decreased ([2]; CP21R7 0.1 μM): 21 days
percentage of SOX10 expression-positive cells ([2]; CP21R7 0.1 μM, on 21 days of culture): started to decrease
percentage of SOX10 expression-positive cells ([2]; CP21R7 0.5 or 1 μM, on 84 days of culture): high percentage of SOX10 expression-positive cells was confirmed
period of culture and proliferation of neural crest cells that maintained multipotency ([2]; CP21R7 0.5 to 1 μM): ≥ 84 days

Compound: EGF: epidermal growth factor, medium additive
influence of concentration on change in total cell number [1]: no influence
influence of concentration on change in the percentage of SOX10 expression-positive cells [2]: no influence

Compound: bFGF: basic fibroblast growth factor (bFGF (also referred to as FGF2)), medium additive
behavior of change in total cell number [1, 5]: substantially the same
influence of concentration on change in total cell number [1]: no influence
influence of bFGF concentration on the percentage of SOX10 expression positivity [2, 5]: no influence
influence of concentration on change in the percentage of SOX10 expression-positive cells [2]: no influence
number and ratio of neural crest cells in a cultured cell population (neural crest cells [4]): decreased in a concentration-dependent manner
